# Experiments:
# IL-6 [1] = test: Secreted IL-6 in HLMVEC treated with TNF-α (FirePlex); type: cell-based, human; details: HLMVEC + 0.5 ng/mL TNF-α, 24 h; amino acids 20x HMDB, Nac/Cit/Car 5 mM as bracketed
# Procedure: (§1) Primary Human Lung Microvascular Endothelial Cells (HLMVEC; Lonza) were seeded at 6,000 cells per well in Endothelial Cell Growth Basal Medium-2 (Lonza) supplemented with Fetal Bovine Serum (FBS; Lonza), human EGF (Lonza), human VEGF (Lonza), R3-Insulin-like Growth Factor-1 (Lonza), ascorbic acid (Lonza), hydrocortisone (Lonza), human FGF-beta (Lonza), and gentamicin/amphotericin-b (Lonza) in a 96-well plate (Thermo Fisher). The cells were incubated for 45 minutes at room temperature, then incubated overnight at 37° C./5% CO2.
# (§2) Following overnight incubation, cell were washed once with 150 μL of Dulbecco's phosphate buffered saline (DPBS; Gibco), and then treated with Endothelial Basal Medium MCB-131 (amino acid, glucose, sodium pyruvate, and phenol red free; US Biologicals) containing a defined custom amino acid concentration based on physiological concentrations in blood of patients with SCD (thus recapitulating observed metabolic imbalances such as the depletion of certain essential amino acids including arginine and aspartate and enrichment of certain non-essential amino acids including glutamate and asparagine), dialyzed FBS (Hyclone), human EGF (Lonza), human VEGF (Lonza), R3-Insulin-like Growth Factor-1 (Lonza), ascorbic acid (Lonza), hydrocortisone (Lonza), human FGF-beta (Lonza), and gentamicin/amphotericin-b (Lonza), glucose, 10 mM HEPES, sodium pyruvate, and sodium bicarbonate supplemented with one of the following: • a. PBS (vehicle control), • b. 0.5 ng/mL Tumor Necrosis Factor alpha (TNFα) and PBS, or; • c. 0.5 ng/mL TNF-α and amino acid treatments at 20× mean physiological concentrations in plasma based on values published in the Human Metabolome Database (HMDB) in PBS.
# Supernatants were analyzed for IL-6 concentrations using a Human Cytokines FirePlex-HT Panel 1 kit (abcam) according to the manufacturer-supplied instructions. Particles were imaged on a high content imager (Molecular Devices), and results were interpolated from a standard curve with FirePlex Analysis Workbench Software (abcam) according manufacturer's recommendations.
# HLMVEC = test: META-rank score, composite of VCAM1, ICAM1 and IL6 in the HLMVEC model; type: cell-based, human; details: HLMVEC + TNF-α; lower score = more optimal; 20x HMDB / 5 mM
# Procedure: The ability of single amino acids and combinations to simultaneously impact these phenotypes was measured by a META-rank score (Tables 17 and 18). META-rank score is a composite measure that considers the optimal impact on all 3 phenotypes (e.g. decrease VCAM1, ICAM1, and IL6) in the HLMVEC model.
# ICAM-1 = ICAM-1 cell integrated intensity in HLMVEC treated with TNF-α (immunofluorescence); type: cell-based, human; details: for ICAM-1 Cell Integrated Intensity Median: HLMVEC + 0.5 ng/mL TNF-α, 24 h, amino acids 20x HMDB, Nac/Cit/Car 5 mM as bracketed
# Procedure: as §1, §2
# (§3) After 24 hours of treatment, cells were washed once with 150 μL of DPBS (Gibco), then fixed with 4% paraformaldehyde. Following fixation, cells were stained with anti-ICAM-1 [MEM-111] (mouse IgG2a anti-human; abcam) and anti-VCAM1 [1.4C3] (mouse IgG1, K anti-human; abcam) primary antibodies at 1000×, and 100× dilutions respectively. Cells were then stained with Goat anti-Mouse IgG2a Cross-Adsorbed Secondary Antibody, Alexa Fluor 594 (Invitrogen) and Goat anti-Mouse IgG1 Cross-Adsorbed Secondary Antibody, Alexa Fluor 647 (Invitrogen) secondary antibodies. Nuclei were stained with Hoechst 3342 (Life Technologies).
# (§4) Antibody binding was detected by fluorescence microscopy using a high content imager (Molecular Devices). Images were analyzed using MetaXpress 6 software to determine the integrated intensity per cell for each wavelength corresponding to ICAM-1 or VCAM-1.
# VCAM-1 = VCAM-1 cell integrated intensity in HLMVEC treated with TNF-α (immunofluorescence); type: cell-based, human; details: for VCAM-1 Cell Integrated Intensity Median: HLMVEC + 0.5 ng/mL TNF-α, 24 h, amino acids 20x HMDB, Nac/Cit/Car 5 mM as bracketed
# Procedure: as §1, §2, §3, §4
# IL-6 [2] = test: LPS-induced IL-6 secretion in primary human monocyte-derived macrophages (ELISA); type: cell-based; parameters: Donor 1 IL-6 Measurements Mean: unit not given here; details: for Donor 1 IL-6 Measurements Mean / Donor 2 IL-6 Measurements Mean: LPS, baseline subtracted
# Procedure: (§5) Primary human PMBC derived macrophages were seeded on day 0 at 3.0×10^4 cells per well in 96-well microplates (ThermoFisher) in Dulbecco's Modified Eagle Medium (DMEM) (Gibco) supplemented with penicillin-streptomycin (Hyclone) and 10% heat inactivated fetal bovine serum (HI-FBS) (Atlanta Bio) and incubated overnight at 37° C., 5% CO2. On day 1, cells were washed once with 150 μl per well DPBS (Gibco) and treated with 75 μl of: • a. […] The same medium described above with one amino acid at various concentrations including complete dropout. […] On day 3, the supernatant was collected and immediately frozen in −80° C. freezer. Cells were washed once with 150 μl DPBS and viability was assessed using the WST-8 Cell Proliferation Cytotoxicity Assay (Dojindo). […] Protein levels in supernatant samples were analyzed by ELISA for IL-6 and TNFα using commercially available kits (R&D Systems) according to manufacturer-supplied protocols.
# TNFα = test: LPS-induced TNF-α secretion in primary human monocyte-derived macrophages (ELISA); type: cell-based; details: for TNF-α Measurements Mean: LPS, baseline subtracted
# Procedure: as §5
# [3] = Donor 2, Conc. 153 μM (baseline)
# [4] = 0.5 ng/mL TNF-α, amino acids at 20× HMDB, 24 hours
Structure (SMILES),Secreted IL6 Median (IL-6 [1]),Meta-Rank (Table 18) (HLMVEC),Metarank (Table 17) (HLMVEC),ICAM-1 Cell Integrated Intensity Median (ICAM-1),VCAM-1 Cell Integrated Intensity Median (VCAM-1),further results
CC(C)[C@H](N)C(=O)O [Val],−0.224,25.5,18,0.167,0.315,–
NCCCC[C@H](N)C(=O)O [Lys],0.132,15.5,29,0.064,0.025,–
CC(C)C[C@H](N)C(=O)O [Leucine],–,–,–,–,–,"Donor 1 IL-6 Measurements Mean (IL-6 [2]; Conc. 153 μM (baseline)): 0; Donor 1 IL-6 Measurements Mean (IL-6 [2]; Conc. 3054 μM): 244.9743; Donor 1 IL-6 Measurements Mean (IL-6 [2]; Conc. 7635 μM): −69.9873; Donor 1 IL-6 Measurements Mean (IL-6 [2]; Conc. 15270 μM): 84.46; Donor 2 IL-6 Measurements Mean (IL-6 [2]; [3]): 7.11E−15; Donor 2 IL-6 Measurements Mean (IL-6 [2]; Donor 2, Conc. 3054 μM): 29.61; Donor 2 IL-6 Measurements Mean (IL-6 [2]; Donor 2, Conc. 7635 μM): 30.46; Donor 2 IL-6 Measurements Mean (IL-6 [2]; Donor 2, Conc. 15270 μM): 47.6; effect on LPS-induced IL-6 secretion (IL-6 [2]; Donor 2, Two Way ANOVA Dunnett): increased; TNF-α Measurements Mean (TNFα; Donor 1, Conc. 153 μM (baseline)): 0; TNF-α Measurements Mean (TNFα; Donor 1, Conc. 3054 μM): 42.04; TNF-α Measurements Mean (TNFα; Donor 1, Conc. 7635 μM): −23.04; TNF-α Measurements Mean (TNFα; Donor 1, Conc. 15270 μM): −46.21; TNF-α Measurements Mean (TNFα; [3]): 0; TNF-α Measurements Mean (TNFα; Donor 2, Conc. 3054 μM): 31.74; TNF-α Measurements Mean (TNFα; Donor 2, Conc. 7635 μM): 41.98; TNF-α Measurements Mean (TNFα; Donor 2, Conc. 15270 μM): 46.69; effect on LPS-induced TNF-α secretion (TNFα; Donor 2, Two Way ANOVA Dunnett): increased"
CC(C)C[C@H](N)C(=O)O [Leu],−0.491,20,7,0.086,0.125,–
NC(=O)CC[C@H](N)C(=O)O [Gln],0.043,29,28,0.237,0.372,–
"NCC(=O)O [Gly, glycine]",−0.010,3,26,−0.261,−0.298,TNFα induced ICAM-1 expression levels in HLMVEC (ICAM-1; [4]): reduced levels of ICAM-1 expression to a lesser extent; VCAM-1 expression in HLMVEC (VCAM-1; [4]): greatly reduced

# From patent US20230000808A1, “COMPOSITIONS AND METHODS EXCLUDING OR WITH REDUCED GLUTAMINE FOR THE TREATMENT OF HEMOGLOBINOPATHIES AND THALASSEMIAS” (AXCELLA HEALTH INC., priority 2019, published 2023)
